How the values were obtained:
Experiment in all cases: relative viability (nuclei count vs DMSO), 5 days (fraction); higher = more cells survive
[1] = compound: CCC1=CN=CN=C1N2CCN(CC2)CC3=NC4=C(N3)C=C(C=C4)C(F)(F)F + CC(=O)c1c(C)c2cnc(Nc3ccc(N4CCNCC4)cn3)nc2n(C2CCCC2)c1=O [Palbociclib] (partner 0.5 µM)
Procedure, shortened: (§1)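 For relative viability, nuclei counts in treated wells were divided by those in vehicle wells. Lung cancer cell lines had been pin-tool dosed in 1536-well plates the day after seeding and cultured for 5 days, then fixed and stained in one step (final 0.05% Triton X-100, 1% formaldehyde, 1 ug/ml Hoechst) and imaged at 4×. Doses were one drug alone or a fixed anchor-drug dose plus five library-drug doses (not always all listed) in √10 steps, and values are duplicate-plate medians.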

[2] = compound: CCn1c(-c2nonc2N)nc2cnc(Oc3cccc(NC(=O)c4ccc(OCCN5CCOCC5)cc4)c3)cc21 + Cc1nc(NC(=O)N2CCC[C@H]2C(N)=O)sc1-c1ccnc(C(C)(C)C(F)(F)F)c1 [Alpelisib] (partner 2 µM)
Procedure, shortened: as §1

[3] = compound: N=C1NC(=O)/C(=C/c2ccc(O)cc2)S1 [Mirin] + CCNC(=O)c1noc(-c2cc(C(C)C)c(O)cc2O)c1-c1ccc(CN2CCOCC2)cc1 [Luminespib] (partner 0.01 µM)
Procedure, shortened: as §1

[4] = compound: CCn1c(-c2nonc2N)nc2cnc(Oc3cccc(NC(=O)c4ccc(OCCN5CCOCC5)cc4)c3)cc21 + CC(=O)Nc1cccc(-n2c(=O)n(C3CC3)c(=O)c3c(Nc4ccc(I)cc4F)n(C)c(=O)c(C)c32)c1 [Trametinib] (partner 0.02 µM)
Procedure, shortened: as §1

EMC-BAC-2
relative viability ([1]; first compound 0.04 µM): 0.483
relative viability ([1]; first compound 0.1265 µM): 0.532
relative viability ([1]; first compound 0.4 µM): 0.533
relative viability ([1]; first compound 1.265 µM): 0.463
relative viability ([1]; first compound 4 µM): 0.554
relative viability ([2]; first compound 0.04 µM): 0.872
relative viability ([2]; first compound 0.1265 µM): 0.732
relative viability ([2]; first compound 0.4 µM): 0.8
relative viability ([2]; first compound 1.265 µM): 0.729
relative viability ([2]; first compound 4 µM): 0.75
relative viability ([3]; first compound 0.25 µM): 1.08
relative viability ([3]; first compound 0.7906 µM): 1.13
relative viability ([3]; first compound 2.5 µM): 1.13
relative viability ([3]; first compound 7.906 µM): 1.17
relative viability ([3]; first compound 25 µM): 1.1
relative viability ([4]; first compound 0.04 µM): 0.905
relative viability ([4]; first compound 0.1265 µM): 0.922
relative viability ([4]; first compound 0.4 µM): 0.826
relative viability ([4]; first compound 1.265 µM): 0.401
relative viability ([4]; first compound 4 µM): 0.445

CAL-12T
relative viability ([1]; first compound 0.04 µM): 0.558
relative viability ([1]; first compound 0.1265 µM): 0.409
relative viability ([1]; first compound 0.4 µM): 0.601
relative viability ([1]; first compound 1.265 µM): 0.288
relative viability ([1]; first compound 4 µM): 0.556
relative viability ([2]; first compound 0.04 µM): 1.75
relative viability ([2]; first compound 0.1265 µM): 1.49
relative viability ([2]; first compound 0.4 µM): 1.51
relative viability ([2]; first compound 1.265 µM): 1.23
relative viability ([2]; first compound 4 µM): 0.786
relative viability ([3]; first compound 0.25 µM): 0.364
relative viability ([3]; first compound 2.5 µM): 0.369
relative viability ([3]; first compound 7.906 µM): 0.696
relative viability ([3]; first compound 25 µM): 0.548
relative viability ([4]; first compound 0.04 µM): 0.354
relative viability ([4]; first compound 0.1265 µM): 0.363
relative viability ([4]; first compound 0.4 µM): 0.372
relative viability ([4]; first compound 1.265 µM): 0.346
relative viability ([4]; first compound 4 µM): 0.345

NCI-H661
relative viability ([1]; first compound 0.04 µM): 0.378
relative viability ([1]; first compound 0.1265 µM): 0.398
relative viability ([1]; first compound 0.4 µM): 0.416
relative viability ([1]; first compound 1.265 µM): 0.386
relative viability ([1]; first compound 4 µM): 0.38
relative viability ([2]; first compound 0.04 µM): 0.823
relative viability ([2]; first compound 0.1265 µM): 0.724
relative viability ([2]; first compound 0.4 µM): 0.435
relative viability ([2]; first compound 1.265 µM): 0.287
relative viability ([2]; first compound 4 µM): 0.451
relative viability ([3]; first compound 0.25 µM): 0.929
relative viability ([3]; first compound 0.7906 µM): 1.03
relative viability ([3]; first compound 2.5 µM): 0.945
relative viability ([3]; first compound 7.906 µM): 0.978
relative viability ([3]; first compound 25 µM): 0.97
relative viability ([4]; first compound 0.04 µM): 0.469
relative viability ([4]; first compound 0.1265 µM): 0.498
relative viability ([4]; first compound 0.4 µM): 0.355
relative viability ([4]; first compound 1.265 µM): 0.451
relative viability ([4]; first compound 4 µM): 0.346

SK-MES-1
relative viability ([1]; first compound 0.04 µM): 0.322
relative viability ([1]; first compound 0.1265 µM): 0.327
relative viability ([1]; first compound 0.4 µM): 0.278
relative viability ([1]; first compound 1.265 µM): 0.32
relative viability ([1]; first compound 4 µM): 0.318
relative viability ([2]; first compound 0.04 µM): 0.924
relative viability ([2]; first compound 0.1265 µM): 0.735
relative viability ([2]; first compound 0.4 µM): 0.656
relative viability ([2]; first compound 4 µM): 0.684
relative viability ([3]; first compound 0.25 µM): 0.869
relative viability ([3]; first compound 0.7906 µM): 0.915
relative viability ([3]; first compound 2.5 µM): 0.88
relative viability ([3]; first compound 7.906 µM): 0.919
relative viability ([3]; first compound 25 µM): 0.7
relative viability ([4]; first compound 0.04 µM): 0.534
relative viability ([4]; first compound 0.1265 µM): 0.519
relative viability ([4]; first compound 0.4 µM): 0.402
relative viability ([4]; first compound 1.265 µM): 0.391
relative viability ([4]; first compound 4 µM): 0.328

NCI-H1355
relative viability ([1]; first compound 0.04 µM): 0.412
relative viability ([1]; first compound 0.1265 µM): 0.387
relative viability ([1]; first compound 0.4 µM): 0.407
relative viability ([1]; first compound 1.265 µM): 0.373
relative viability ([1]; first compound 4 µM): 0.368
relative viability ([2]; first compound 0.04 µM): 0.863
relative viability ([2]; first compound 0.1265 µM): 0.951
relative viability ([2]; first compound 0.4 µM): 0.818
relative viability ([2]; first compound 1.265 µM): 0.814
relative viability ([2]; first compound 4 µM): 0.863
relative viability ([3]; first compound 0.25 µM): 0.724
relative viability ([3]; first compound 0.7906 µM): 0.855
relative viability ([3]; first compound 2.5 µM): 0.764
relative viability ([3]; first compound 7.906 µM): 0.689
relative viability ([3]; first compound 25 µM): 0.548
relative viability ([4]; first compound 0.04 µM): 0.322
relative viability ([4]; first compound 0.1265 µM): 0.433
relative viability ([4]; first compound 0.4 µM): 0.434
relative viability ([4]; first compound 1.265 µM): 0.392
relative viability ([4]; first compound 4 µM): 0.398

PC-14
relative viability ([1]; first compound 0.04 µM): 0.519
relative viability ([1]; first compound 0.1265 µM): 0.518
relative viability ([1]; first compound 0.4 µM): 0.548
relative viability ([1]; first compound 1.265 µM): 0.608
relative viability ([1]; first compound 4 µM): 0.506
relative viability ([2]; first compound 0.04 µM): 1.06
relative viability ([2]; first compound 0.1265 µM): 0.935
relative viability ([2]; first compound 0.4 µM): 0.871
relative viability ([2]; first compound 1.265 µM): 0.77
relative viability ([2]; first compound 4 µM): 0.805
relative viability ([3]; first compound 0.25 µM): 0.177
relative viability ([3]; first compound 0.7906 µM): 0.142
relative viability ([3]; first compound 2.5 µM): 0.191
relative viability ([3]; first compound 7.906 µM): 0.187
relative viability ([3]; first compound 25 µM): 0.144
relative viability ([4]; first compound 0.04 µM): 0.632
relative viability ([4]; first compound 0.1265 µM): 0.379
relative viability ([4]; first compound 0.4 µM): 0.468
relative viability ([4]; first compound 1.265 µM): 0.426
relative viability ([4]; first compound 4 µM): 0.396

From the supplement of paper PMC10307832
